Results reported in patent US5968903A, “Inhibition of H. pylori proliferation” (Biomeasure, Incorporated, priority 1998, dated 1999).
Like-named read-outs stand apart in the source and are kept apart here. Positions of bridges follow the written chain, without caps; N, C: chain ends. Non-standard residues stand in square brackets, D forms with d. Residues, ends and D or L forms follow the SMILES beside them. *: point of attachment. X1 = O=C(CN1CCN(CCO)CC1)*

What was measured:
[1] = target: human SSTR-1 (Homo sapiens, UniProt P30872); test: Somatostatin receptor binding assay, hSSTR-1
Chain of human SSTR-1 (P30872 whole entry): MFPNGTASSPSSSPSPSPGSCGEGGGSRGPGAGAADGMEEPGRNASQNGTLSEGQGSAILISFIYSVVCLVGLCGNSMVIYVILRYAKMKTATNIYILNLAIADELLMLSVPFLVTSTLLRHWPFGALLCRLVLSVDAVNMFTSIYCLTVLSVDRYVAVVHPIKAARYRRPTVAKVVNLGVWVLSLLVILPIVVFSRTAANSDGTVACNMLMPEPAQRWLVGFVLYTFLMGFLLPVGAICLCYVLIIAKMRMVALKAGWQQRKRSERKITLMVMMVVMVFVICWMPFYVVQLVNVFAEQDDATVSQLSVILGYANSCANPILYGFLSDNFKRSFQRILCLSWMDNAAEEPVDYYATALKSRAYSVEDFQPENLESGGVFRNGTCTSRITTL

[2] = target: human SSTR-2 (Homo sapiens, UniProt P30874); test: Somatostatin receptor binding assay, hSSTR-2
Chain of human SSTR-2 (P30874 whole entry): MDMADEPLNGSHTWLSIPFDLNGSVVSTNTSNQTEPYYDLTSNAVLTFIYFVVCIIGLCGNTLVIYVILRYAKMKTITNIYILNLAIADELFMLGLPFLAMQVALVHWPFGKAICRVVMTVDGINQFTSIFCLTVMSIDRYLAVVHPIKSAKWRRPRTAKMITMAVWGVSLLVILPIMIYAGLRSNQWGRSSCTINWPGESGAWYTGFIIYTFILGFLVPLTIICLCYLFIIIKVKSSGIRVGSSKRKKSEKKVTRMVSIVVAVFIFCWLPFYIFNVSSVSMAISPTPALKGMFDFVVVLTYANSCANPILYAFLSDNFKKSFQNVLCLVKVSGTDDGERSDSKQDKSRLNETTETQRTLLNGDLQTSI

[3] = target: human SSTR-3 (Homo sapiens, UniProt P32745); test: Somatostatin receptor binding assay, hSSTR-3
Chain of human SSTR-3 (P32745 whole entry): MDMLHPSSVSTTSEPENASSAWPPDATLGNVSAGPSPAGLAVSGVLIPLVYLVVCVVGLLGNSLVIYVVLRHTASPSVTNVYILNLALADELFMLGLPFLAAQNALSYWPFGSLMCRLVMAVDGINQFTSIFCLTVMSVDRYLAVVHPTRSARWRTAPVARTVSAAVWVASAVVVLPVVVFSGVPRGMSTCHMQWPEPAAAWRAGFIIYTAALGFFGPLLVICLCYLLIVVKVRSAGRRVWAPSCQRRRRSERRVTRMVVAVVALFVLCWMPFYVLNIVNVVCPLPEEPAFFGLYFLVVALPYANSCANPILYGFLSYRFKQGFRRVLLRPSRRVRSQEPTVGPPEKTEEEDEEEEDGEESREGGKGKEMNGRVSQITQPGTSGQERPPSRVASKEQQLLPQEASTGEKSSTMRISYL

[4] = target: human SSTR-5 (Homo sapiens, UniProt P35346); test: Somatostatin receptor binding assay, hSSTR-5
Chain of human SSTR-5 (P35346 whole entry): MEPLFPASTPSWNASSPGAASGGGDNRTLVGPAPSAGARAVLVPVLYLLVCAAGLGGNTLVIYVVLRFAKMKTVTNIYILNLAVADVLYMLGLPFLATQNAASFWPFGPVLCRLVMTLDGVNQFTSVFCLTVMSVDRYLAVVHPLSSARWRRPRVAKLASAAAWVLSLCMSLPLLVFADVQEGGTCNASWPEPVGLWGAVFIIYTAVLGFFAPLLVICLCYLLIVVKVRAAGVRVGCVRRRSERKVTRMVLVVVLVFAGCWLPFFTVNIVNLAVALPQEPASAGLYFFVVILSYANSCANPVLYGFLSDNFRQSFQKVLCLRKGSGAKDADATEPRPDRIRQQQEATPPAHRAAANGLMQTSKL

[5] = target: human SSTR-4 (Homo sapiens, UniProt P31391); test: Somatostatin receptor binding assay, hSSTR-4
Chain of human SSTR-4 (P31391 whole entry): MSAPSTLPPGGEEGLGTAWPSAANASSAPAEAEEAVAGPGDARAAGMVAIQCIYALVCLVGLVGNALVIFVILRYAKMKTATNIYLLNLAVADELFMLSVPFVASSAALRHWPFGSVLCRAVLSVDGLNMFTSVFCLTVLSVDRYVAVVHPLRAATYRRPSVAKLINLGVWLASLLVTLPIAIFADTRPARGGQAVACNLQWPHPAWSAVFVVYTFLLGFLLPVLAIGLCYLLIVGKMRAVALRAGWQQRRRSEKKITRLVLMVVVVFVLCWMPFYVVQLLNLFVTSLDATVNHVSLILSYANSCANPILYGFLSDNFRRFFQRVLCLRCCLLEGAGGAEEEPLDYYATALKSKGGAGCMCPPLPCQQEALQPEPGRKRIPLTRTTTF

[6] = system: H. pylori ATCC43504; test: H. pylori proliferation in Brucella broth, strain ATCC43504; assay type: cell-based; settings: for ATCC43504 bacteria number: 10^-11 mol/L, 48 h
[7] = system: H. pylori NCTC11638
[8] = system: H. pylori NCTC11916
[9] = system: H. pylori ATCC43504; settings: ATCC43504, 48 h
[10] = [125I-Tyr11]somatostatin-14, CHO-K1 membranes, read-out: Ki hSSTR-1
[11] = [125I-Tyr11]somatostatin-14, CHO-K1 membranes, read-out: Ki hSSTR-2
[12] = [125I-Tyr11]somatostatin-14, CHO-K1 membranes, read-out: Ki hSSTR-3
[13] = [125I-Tyr11]somatostatin-14, CHO-K1 membranes

With `NCCCC[C@@H]1NC(=O)[C@@H](Cc2c[nH]c3ccccc23)NC(=O)[C@H](Cc2ccccc2)NC(=O)[C@H](Cc2ccccc2)NC(=O)[C@@H](N)CSSC[C@@H](C(N)=O)NC(=O)[C@H](Cc2ccccc2)NC(=O)[C@H](CO)NC1=O` [Example 108, H-Cys-Phe-Phe-D-Trp-Lys-Ser-Phe-Cys-NH2] (H-CFF[dW]KSFC-NH2; disulfide 1-8 (inferred)) as the compound, how does the Ki [1, 10] read?
Its Ki is 27.9 nM.

What about the Ki [2, 11] of the same compound?
Its Ki is 19.3 nM.

What about the Ki [3, 12] of the same compound?
The Ki was 35.6 nM.

And the Ki [4, 13]?
The Ki was 0.85 nM.

`C[C@@H](O)[C@H](NC(=O)[C@@H]1CSSC[C@H](NC(=O)[C@H](N)Cc2ccc3ccccc3c2)C(=O)N[C@@H](Cc2ccc(O)cc2)C(=O)N[C@H](Cc2c[nH]c3ccccc23)C(=O)N[C@@H](CCCCN)C(=O)N[C@@H]([C@@H](C)O)C(=O)N1)C(N)=O` [Example 1, H-D-β-Nal-Cys-Tyr-D-Trp-Lys-Thr-Cys-Thr-NH2] was tested. Which Ki [1] did it give?
Its Ki is 2410 nM.

And the Ki [2]?
The Ki was 0.75 nM.

What about the Ki [3] of the same compound?
The Ki was 97.9 nM.

What does the source list for `C[C@@H](O)[C@@H]1NC(=O)[C@H](CCCCN)NC(=O)[C@@H](Cc2c[nH]c3ccccc23)NC(=O)[C@H](Cc2ccc(O)cc2)NC(=O)[C@H](Cc2ccccc2)NC(=O)[C@@H](N)CSSC[C@@H](C(N)=O)NC(=O)[C@H](Cc2ccccc2)NC1=O` [Example 109, H-Cys-Phe-Tyr-D-Trp-Lys-Thr-Phe-Cys-NH2] (H-CFY[dW]KTFC-NH2; disulfide 1-8 (inferred))?
Ki [1, 10]: 86.9 nM; affinity for type 2 (in words) [2]: high affinity; Ki [2, 11]: 6.19 nM; affinity for type 3 (in words) [3]: high affinity; Ki [3, 12]: 9.7 nM; affinity for type 4 (in words) [5]: high affinity; Ki [4, 13]: 0.34 nM; ATCC43504 bacteria number [6]: 1.4 ± 0.5 ×10^5 CFU/mL

For `C[C@@H](O)[C@H](NC(=O)[C@H](Cc1ccccc1)NC(=O)[C@@H](NC(=O)[C@H](CCCCN)NC(=O)[C@@H](Cc1c[nH]c2ccccc12)NC(=O)[C@H](Cc1ccccc1)NC(=O)[C@H](Cc1ccccc1)NC(=O)[C@H](N)Cc1ccccc1)[C@@H](C)O)C(N)=O` [Example 114, H-D-Phe-Phe-Phe-D-Trp-Lys-Thr-Phe-Thr-NH2] (H-[dF]FF[dW]KTFT-NH2), which “affinity for type 3 (in words)” value [3] is on record?
Its value is “high affinity”.

And the “affinity for type 5 (in words)” value [4]?
The value was “high affinity”.

What about the ATCC43504 bacteria number [6] of the same compound?
Its ATCC43504 bacteria number is 9.8 ± 2.0 ×10^5 CFU/mL.

Which results are given for `CC(C)[C@@H]1NC(=O)[C@H](CCCCN)NC(=O)[C@@H](Cc2c[nH]c3ccccc23)NC(=O)[C@H](Cc2ccc(O)cc2)NC(=O)[C@H](C)N(C)C(=O)[C@H](Cc2ccccc2)NC1=O` [Example 76, cyclo(N-Me-Ala-Tyr-D-Trp-Lys-Val-Phe)]?
affinity for type 2 (in words) [2]: high affinity; ATCC43504 bacteria number [6]: 2.7 ± 1.3 ×10^5 CFU/mL

`C[C@H](N)C(=O)NCC(=O)N[C@H]1CSSC[C@@H](C(=O)O)NC(=O)[C@H](CO)NC(=O)[C@H]([C@@H](C)O)NC(=O)[C@H](Cc2ccccc2)NC(=O)[C@H]([C@@H](C)O)NC(=O)[C@H](CCCCN)NC(=O)[C@H](Cc2c[nH]c3ccccc23)NC(=O)[C@H](Cc2ccccc2)NC(=O)[C@H](Cc2ccccc2)NC(=O)[C@H](CC(N)=O)NC(=O)[C@H](CCCCN)NC1=O` [somatostatin] was tested. Which “decrease of bacteria number / suppression of ATCC43504 proliferation” value [6] did it give?
Its value is 49%.

And the “inhibition of ATCC43504 proliferation (in words)” value [6]?
The value was “inhibited proliferation of ATCC43504 in a dose-dependent manner”.

And the NCTC11638 bacteria number [7]?
The NCTC11638 bacteria number was 1.6±0.2 ×10^6 CFU/mL.

And the “inhibition of NCTC11638” value ([7]; NCTC11638, 48 h)?
The value was 90%.

And the NCTC11916 bacteria number [8]?
The NCTC11916 bacteria number was 2.6±0.2 ×10^6 CFU/mL.

What about the “inhibition of NCTC11916” value ([8]; NCTC11916, 48 h) of the same compound?
Its value is 79%.

And the “inhibition of H. pylori proliferation by somatostatin” value [9]?
The value was 88%.

For `C[C@@H](O)[C@@H]1NC(=O)[C@H](CCCCN)NC(=O)[C@@H](Cc2c[nH]c3ccccc23)NC(=O)[C@H](Cc2ccccc2)NC(=O)[C@H](Cc2ccccc2)NC(=O)[C@@H](N)CSSC[C@@H](C(N)=O)NC(=O)[C@H](Cc2ccccc2)NC1=O` [Example 107, H-Cys-Phe-Phe-D-Trp-Lys-Thr-Phe-Cys-NH2] (H-CFF[dW]KTFC-NH2; disulfide 1-8 (inferred)), which “affinity for type 1 (in words)” value [1] is on record?
Its value is “some affinity”.

What about the “affinity for type 3 (in words)” value [3] of the same compound?
The value was “some affinity”.

And the “affinity for type 5 (in words)” value [4]?
Its value is “high affinity”.

What about the ATCC43504 bacteria number [6] of the same compound?
Its ATCC43504 bacteria number is 6.5 ± 0.7 ×10^5 CFU/mL.

Which results are given for `C[C@@H](O)[C@H](NC(=O)[C@H](Cc1ccccc1)NC(=O)[C@@H](NC(=O)[C@H](CCCCN)NC(=O)[C@@H](Cc1c[nH]c2ccccc12)NC(=O)[C@H](Cc1ccccc1)NC(=O)[C@H](Cc1ccccc1)NC(=O)[C@@H](Cc1ccccc1)NC(=O)CN1CCN(CCO)CC1)[C@@H](C)O)C(N)=O` [Example 118] (X1-[dF]FF[dW]KTFT-NH2)?
Ki ([1]; read-out: Ki hSSTR-1): 47.7 nM; Ki ([2]; read-out: Ki hSSTR-2): 3.23 nM; Ki ([3]; read-out: Ki hSSTR-3): 10.9 nM; Ki [5]: 753 nM; Ki [4]: 1.01 nM
